Measurements reported in ChEMBL document CHEMBL5665443, “Enzyme Inhibitor Single Concentration assay results for EUbOPEN Chemogenomics Library” (2024).

Assays:
[1] = target: T1, Adenine DNA glycosylase (Homo sapiens) (UniProt Q9UIF7); details: Hit No;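 also: human MUTYH activity read as 594 nm fluorescence from cleavage and release of a quenched DNA duplex, coupled with APE1 for strand incision, lower signal meaning inhibition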
T1 sequence (whole entry): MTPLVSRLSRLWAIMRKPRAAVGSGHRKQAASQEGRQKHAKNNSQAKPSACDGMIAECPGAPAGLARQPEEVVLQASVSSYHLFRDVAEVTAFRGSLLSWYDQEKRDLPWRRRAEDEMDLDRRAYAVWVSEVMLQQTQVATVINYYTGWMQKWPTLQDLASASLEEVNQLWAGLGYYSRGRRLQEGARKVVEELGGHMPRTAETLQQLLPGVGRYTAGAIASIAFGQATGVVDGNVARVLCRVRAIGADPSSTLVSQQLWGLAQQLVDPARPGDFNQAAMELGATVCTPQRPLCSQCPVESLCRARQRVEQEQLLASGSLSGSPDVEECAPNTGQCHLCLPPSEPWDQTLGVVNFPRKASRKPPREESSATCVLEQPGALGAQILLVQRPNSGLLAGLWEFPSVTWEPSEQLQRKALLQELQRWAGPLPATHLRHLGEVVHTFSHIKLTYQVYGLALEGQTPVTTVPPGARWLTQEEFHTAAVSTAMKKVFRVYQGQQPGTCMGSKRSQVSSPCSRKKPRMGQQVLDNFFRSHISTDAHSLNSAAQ
Description: Inhibition of MUTYH by quantifying inhibition of MUTYH-mediated cleavage and dissociation of quenched duplex DNA oligonucleotides, measured as fluorescence at 594 nm. To generate a functional strand incision and increase turn-over this assay is coupled to APE1.

[2] = target: Endonuclease 8-like 1 (Homo sapiens) (UniProt Q96FI4); details: Hit No;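 also: fluorescence at 594 nm from quenched duplex DNA oligonucleotides released by NEIL1 cleavage and strand separation, reported as reduction of this enzyme activity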
Description: Inhibition of NEIL1 by quantifying inhibition of NEIL1-mediated cleavage and dissociation of quenched duplex DNA oligonucleotides, measured as fluorescence at 594 nm.

[3] = target: T2, Endonuclease 8-like 2 (Homo sapiens) (UniProt Q969S2);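 also: fluorescence at 594 nm reports NEIL2 cutting and release of a quenched double-stranded DNA oligo substrate, reduced signal read as inhibition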
T2 sequence (whole entry): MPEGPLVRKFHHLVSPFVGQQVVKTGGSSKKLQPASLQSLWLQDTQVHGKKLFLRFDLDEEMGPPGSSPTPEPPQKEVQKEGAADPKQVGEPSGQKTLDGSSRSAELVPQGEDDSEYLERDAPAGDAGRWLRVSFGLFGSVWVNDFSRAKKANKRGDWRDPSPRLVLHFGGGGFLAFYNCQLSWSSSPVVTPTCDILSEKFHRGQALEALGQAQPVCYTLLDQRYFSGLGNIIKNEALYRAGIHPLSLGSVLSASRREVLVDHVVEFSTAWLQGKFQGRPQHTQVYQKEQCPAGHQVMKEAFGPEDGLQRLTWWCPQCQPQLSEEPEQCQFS
Description: Inhibition of NEIL2 by quantifying inhibition of NEIL2-mediated cleavage and dissociation of quenched duplex DNA oligonucleotides, measured as fluorescence at 594 nm.

[4] = target: T3, Endonuclease III-like protein 1 (Homo sapiens) (UniProt P78549); details: Hit No;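 also: enzyme assay tracking NTHL1 cutting and release of a quenched double-stranded DNA oligo substrate, read as fluorescence at 594 nm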
T3 sequence (whole entry): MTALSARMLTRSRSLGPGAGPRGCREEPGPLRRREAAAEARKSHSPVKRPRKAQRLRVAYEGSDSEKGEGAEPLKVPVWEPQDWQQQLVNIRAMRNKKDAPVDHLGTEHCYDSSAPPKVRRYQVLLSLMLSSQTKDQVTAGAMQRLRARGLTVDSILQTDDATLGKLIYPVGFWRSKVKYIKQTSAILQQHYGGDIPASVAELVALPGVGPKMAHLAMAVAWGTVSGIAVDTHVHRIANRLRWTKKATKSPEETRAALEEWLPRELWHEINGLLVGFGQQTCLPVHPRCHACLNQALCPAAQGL
Description: Inhibition of NTHL1 by quantifying inhibition of NTHL1-mediated cleavage and dissociation of quenched duplex DNA oligonucleotides, measured as fluorescence at 594 nm.

[5] = target: T4, Single-strand selective monofunctional uracil DNA glycosylase (Homo sapiens) (UniProt Q53HV7); details: Hit No;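 also: enzymatic SMUG1 assay coupled with APE1, reading fluorescence at 594 nm released when a quenched double-stranded DNA oligonucleotide substrate is cleaved and separated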
T4 sequence (whole entry): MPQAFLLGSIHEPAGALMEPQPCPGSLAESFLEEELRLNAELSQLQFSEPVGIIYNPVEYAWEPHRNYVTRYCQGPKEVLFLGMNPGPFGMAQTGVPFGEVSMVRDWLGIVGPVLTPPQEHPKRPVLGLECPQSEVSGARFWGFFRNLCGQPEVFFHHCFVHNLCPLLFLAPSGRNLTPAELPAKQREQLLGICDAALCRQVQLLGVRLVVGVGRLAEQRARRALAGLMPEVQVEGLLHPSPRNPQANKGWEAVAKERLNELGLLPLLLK
Description: Inhibition of SMUG1 by quantifying inhibition of SMUG1-mediated cleavage and dissociation of quenched duplex DNA oligonucleotides, measured as fluorescence at 594 nm. To generate a functional strand incision and increase turn-over this assay is coupled to APE1.

[6] = target: G/T mismatch-specific thymine DNA glycosylase (Homo sapiens) (UniProt Q13569); details: Hit No;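 also: human TDG cleavage of quenched duplex DNA oligonucleotides coupled to APE1, strand release read as fluorescence at 594 nm, inhibition of TDG activity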
Description: Inhibition of TDG by quantifying inhibition of TDG-mediated cleavage and dissociation of quenched duplex DNA oligonucleotides, measured as fluorescence at 594 nm. To generate a functional strand incision and increase turn-over this assay is coupled to APE1.

[7] = target: Uracil-DNA glycosylase (Homo sapiens) (UniProt P13051); details: Hit No;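 also: UNG excision on a quenched double-stranded DNA oligo probe, with APE1 added for strand incision and turnover, read as fluorescence at 594 nm as strands separate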
Description: Inhibition of UNG by quantifying inhibition of UNG-mediated cleavage and dissociation of quenched duplex DNA oligonucleotides, measured as fluorescence at 594 nm. To generate a functional strand incision and increase turn-over this assay is coupled to APE1.

[8] = target: N-glycosylase/DNA lyase (Homo sapiens) (UniProt O15527); details: Hit No;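 also: OGG1 cleavage of a quenched duplex DNA oligonucleotide, coupled to APE1 for strand incision, read as fluorescence at 594 nm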
Description: Inhibition of OGG1 by quantifying inhibition of OGG1-mediated cleavage and dissociation of quenched duplex DNA oligonucleotides, measured as fluorescence at 594 nm. To generate a functional strand incision and increase turn-over this assay is coupled to APE1.

[9] = target: Methyl-CpG-binding domain protein 4 (Homo sapiens) (UniProt O95243); details: Hit No;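 also: MBD4 activity read as fluorescence at 594 nm from cleavage and release of a quenched duplex DNA oligonucleotide, with APE1 coupled to incise the strand and raise turnover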
Description: Inhibition of MBD4 by quantifying inhibition of MBD4-mediated cleavage and dissociation of quenched duplex DNA oligonucleotides, measured as fluorescence at 594 nm. To generate a functional strand incision and increase turn-over this assay is coupled to APE1.

[10] = Compound Concentration 10.0 uM, Hit No
[11] = Compound Concentration 1.0 uM, Hit No

Chain of G/T mismatch-specific thymine DNA glycosylase (Homo sapiens) (Q13569 whole entry): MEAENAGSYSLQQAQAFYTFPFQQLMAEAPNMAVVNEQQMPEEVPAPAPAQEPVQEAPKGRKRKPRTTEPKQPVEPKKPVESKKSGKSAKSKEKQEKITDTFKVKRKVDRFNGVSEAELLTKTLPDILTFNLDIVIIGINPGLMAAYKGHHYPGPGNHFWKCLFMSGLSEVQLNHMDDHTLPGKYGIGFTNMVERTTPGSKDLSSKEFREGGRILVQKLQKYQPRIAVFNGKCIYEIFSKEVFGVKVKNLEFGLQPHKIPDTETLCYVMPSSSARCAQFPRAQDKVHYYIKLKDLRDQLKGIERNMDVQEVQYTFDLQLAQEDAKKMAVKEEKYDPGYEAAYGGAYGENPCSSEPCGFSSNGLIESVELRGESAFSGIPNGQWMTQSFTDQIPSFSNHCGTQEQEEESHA
Chain of Uracil-DNA glycosylase (Homo sapiens) (P13051 whole entry): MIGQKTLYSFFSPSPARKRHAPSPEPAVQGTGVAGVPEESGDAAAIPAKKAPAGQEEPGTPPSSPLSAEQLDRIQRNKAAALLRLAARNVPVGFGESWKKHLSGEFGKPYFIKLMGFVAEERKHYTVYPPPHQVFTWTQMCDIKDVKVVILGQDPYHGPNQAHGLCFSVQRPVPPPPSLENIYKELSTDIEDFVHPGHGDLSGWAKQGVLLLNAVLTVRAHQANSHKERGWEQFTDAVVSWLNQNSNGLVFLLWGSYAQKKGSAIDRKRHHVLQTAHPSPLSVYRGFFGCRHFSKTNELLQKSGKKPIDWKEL
Chain of Endonuclease 8-like 1 (Homo sapiens) (Q96FI4 whole entry): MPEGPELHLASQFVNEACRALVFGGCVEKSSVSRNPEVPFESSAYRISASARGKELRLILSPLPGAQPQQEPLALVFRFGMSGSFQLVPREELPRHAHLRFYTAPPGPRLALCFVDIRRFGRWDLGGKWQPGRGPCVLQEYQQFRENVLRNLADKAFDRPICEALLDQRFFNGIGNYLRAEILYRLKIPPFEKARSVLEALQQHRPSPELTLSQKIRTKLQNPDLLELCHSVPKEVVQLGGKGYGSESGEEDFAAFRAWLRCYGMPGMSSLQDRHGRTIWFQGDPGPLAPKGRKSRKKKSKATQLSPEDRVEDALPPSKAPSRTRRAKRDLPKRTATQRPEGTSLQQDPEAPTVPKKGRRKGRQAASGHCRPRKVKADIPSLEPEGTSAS
Chain of N-glycosylase/DNA lyase (Homo sapiens) (O15527 whole entry, the tested form may be a part): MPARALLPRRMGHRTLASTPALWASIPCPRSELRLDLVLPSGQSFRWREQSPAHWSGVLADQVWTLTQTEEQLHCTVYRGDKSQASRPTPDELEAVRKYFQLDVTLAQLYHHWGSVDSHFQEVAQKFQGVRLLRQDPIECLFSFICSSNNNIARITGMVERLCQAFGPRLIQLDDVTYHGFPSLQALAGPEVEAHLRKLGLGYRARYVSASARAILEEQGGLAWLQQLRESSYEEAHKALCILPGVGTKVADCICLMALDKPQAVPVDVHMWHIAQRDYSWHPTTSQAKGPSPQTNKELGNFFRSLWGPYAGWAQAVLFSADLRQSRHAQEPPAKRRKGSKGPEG
Chain of Methyl-CpG-binding domain protein 4 (Homo sapiens) (O95243 whole entry, the tested form may be a part): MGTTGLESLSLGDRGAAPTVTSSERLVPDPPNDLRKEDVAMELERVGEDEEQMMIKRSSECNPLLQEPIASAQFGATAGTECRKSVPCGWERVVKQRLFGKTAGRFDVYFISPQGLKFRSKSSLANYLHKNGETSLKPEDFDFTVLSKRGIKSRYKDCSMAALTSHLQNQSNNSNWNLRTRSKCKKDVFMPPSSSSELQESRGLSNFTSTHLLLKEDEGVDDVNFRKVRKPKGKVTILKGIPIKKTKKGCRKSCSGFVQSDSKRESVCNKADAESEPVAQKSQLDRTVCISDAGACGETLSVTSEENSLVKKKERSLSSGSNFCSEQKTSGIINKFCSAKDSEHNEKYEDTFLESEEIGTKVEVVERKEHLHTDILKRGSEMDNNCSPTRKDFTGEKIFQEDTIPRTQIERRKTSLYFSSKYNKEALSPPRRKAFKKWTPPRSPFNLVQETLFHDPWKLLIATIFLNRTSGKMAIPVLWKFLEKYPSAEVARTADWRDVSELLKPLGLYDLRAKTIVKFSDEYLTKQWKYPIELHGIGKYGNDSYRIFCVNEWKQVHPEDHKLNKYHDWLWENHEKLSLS

SMILES | inhibition ([1]; Compound Concentration 10.0 uM) | inhibition ([2]; Compound Concentration 10.0 uM) | inhibition [3, 10] | inhibition ([4]; Compound Concentration 10.0 uM) | inhibition ([5]; Compound Concentration 10.0 uM) | inhibition ([6]; Compound Concentration 10.0 uM) | inhibition ([7]; Compound Concentration 10.0 uM) | inhibition ([1]; Compound Concentration 1.0 uM) | inhibition ([2]; Compound Concentration 1.0 uM) | inhibition [3, 11] | inhibition ([4]; Compound Concentration 1.0 uM) | inhibition ([5]; Compound Concentration 1.0 uM) | inhibition ([6]; Compound Concentration 1.0 uM) | inhibition ([7]; Compound Concentration 1.0 uM) | inhibition ([8]; Compound Concentration 10.0 uM) | inhibition ([3]; Compound Concentration 10.0 uM, Hit Yes) | inhibition ([8]; Compound Concentration 1.0 uM) | inhibition ([9]; Compound Concentration 10.0 uM) | inhibition ([9]; Compound Concentration 1.0 uM)
OC[C@H]1O[C@@H](n2cnc3c(NC4CCCC4)ncnc32)[C@H](O)[C@@H]1O | 9.75% | 2.61% | 11.2% | 7.05% | -9.38% | -6.42% | – | – | – | – | – | – | – | – | – | – | – | – | –
Cn1cnc2c(F)c(Nc3ccc(Br)cc3Cl)c(C(=O)NOCCO)cc21 | -2.18% | 11.5% | – | -8.28% | 16.2% | 39.7% | -1.17% | – | – | – | – | – | – | – | – | – | – | – | –
Cn1cc(-c2[nH]c3cc(NC(=O)[C@H](N)C4CCCCC4)cc4c3c2C=NNC4=O)cn1 | – | – | – | – | – | – | – | -0.0556% | -1.18% | -5.15% | -0.61% | 19.2% | 43.2% | 0.598% | – | – | – | – | –
CNc1cc(Oc2cc(C(=O)Nc3cc(N4CCN(C)CC4)cc(C(F)(F)F)c3)ccc2C)ncn1 | -9.46% | – | – | 11.9% | -8.61% | 76.5% | -3.12% | – | – | – | – | – | – | – | – | – | – | – | –
CS(=O)(=O)NC[C@H]1CC[C@H](Nc2nc3c(s2)CCSc2ccccc2-3)CC1 | -5.74% | -5.25% | 8.25% | 34.9% | -4.83% | 2.85% | -8.36% | – | – | – | – | – | – | – | -8.83% | – | – | – | –
Cc1cccc([C@H](C)c2c[nH]cn2)c1C | 5.65% | -5.1% | 7.25% | -4.67% | -5.51% | 18.4% | – | – | – | – | – | – | – | – | -7.75% | – | – | – | –
CC(C)NCC(O)COc1cccc2ccccc12 (centres undefined) | 3.6% | -0.797% | – | 13.7% | 3.41% | 5.22% | -6.12% | – | – | – | – | – | – | – | – | 35% | – | – | –
CCC(=O)NC[C@@H]1C[C@H]1c1cccc2c1CCO2 | 2.71% | 4.24% | -7.72% | -4.67% | – | 4.27% | – | – | – | – | – | – | – | – | 1.29% | – | – | – | –
Cc1nc(C#Cc2ccnc(Cl)c2)c(C)n1-c1ccc(OC(F)(F)F)cc1 | 14% | -9.4% | 5.26% | 7.05% | 5% | 20.9% | -8.09% | – | – | – | – | – | – | – | -0.162% | – | – | – | –
OCCn1cc(-c2cnc3nnn(Cc4ccc5ncccc5c4)c3n2)cn1 | 0.369% | 2.52% | -5.15% | -9.68% | 18.6% | 49.5% | -1.44% | – | – | – | – | – | – | – | -5.86% | – | – | – | –
COc1ccccc1CN[C@H]1C2CCN(CC2)[C@H]1C(c1ccccc1)c1ccccc1 | 11.2% | -4.06% | -6.97% | -5.41% | – | 0.738% | -4.4% | – | – | – | – | – | – | – | -6.59% | – | – | – | –
CNc1nc(Nc2cnn([C@H]3CCN(C4COC4)C[C@@H]3F)c2Cl)ncc1C(F)(F)F | – | – | – | – | – | – | – | -1.03% | -2.24% | – | -6.19% | 15% | 39.4% | 2.4% | – | – | -2.93% | – | –
C=CCN1C[C@H](C(=O)N(CCCN(C)C)C(=O)NCC)C[C@@H]2c3cccc4[nH]cc(c34)C[C@H]21 | 1.81% | 10.6% | -3.73% | 1.92% | -9.96% | -7.89% | – | – | – | – | – | – | – | – | – | – | – | – | –
CN(C)C/C=C/C(=O)Nc1cc2c(Nc3ccc(F)c(Cl)c3)ncnc2cc1O[C@H]1CCOC1 | – | – | – | – | – | – | – | 19.4% | – | – | 4.97% | -1.31% | 46.9% | -1.9% | – | – | – | – | –
CNC(=O)Nc1ccc(-c2nc(N3CC4CCC(C3)O4)c3cnn(C4CCC5(CC4)OCCO5)c3n2)cc1 | 5.83% | 2.52% | – | 2.88% | 15.7% | 46.1% | 6.27% | – | – | – | – | – | – | – | – | – | – | – | –
O=C(O)c1cc(-c2ccc(C3CCNCC3)cc2)c2ccc(-c3ccc(C(F)(F)F)cc3)cc2c1 | 10.9% | -1.45% | 1.86% | 2.15% | -1.19% | 20.1% | 0.968% | – | – | – | – | – | – | – | -4.86% | – | – | – | –
N[C@@H]1c2cccnc2[C@H](OC(=O)N2CCC(n3c(=O)[nH]c4ncccc43)CC2)CC[C@H]1c1cccc(F)c1F | -2.28% | -2.58% | 0.515% | -6.14% | -4.73% | 6.23% | – | – | – | – | – | – | – | – | -5.76% | – | – | – | –
NC1(c2ccc(-c3nc4ccn5c(=O)[nH]nc5c4cc3-c3ccccc3)cc2)CCC1 | 56.1% | 17.6% | -9.46% | – | 29.1% | 71.2% | 17.3% | – | – | – | – | – | – | – | 10.8% | – | – | 37.9% | –
COc1ccc(Oc2cc(NCCC(F)(F)F)c3ncc(-c4ccc(C(=O)NC5CC5)c(C)c4)n3n2)c(F)c1F | -2.54% | – | – | -2% | 5.15% | 93.1% | 0.303% | – | – | – | – | – | – | – | – | – | – | – | –
COc1cc(Nc2ncc3c(n2)-c2ccc(Cl)cc2C(c2c(F)cccc2OC)=NC3)ccc1C(=O)O | – | – | – | – | – | – | – | -7.52% | -3.03% | -9.46% | – | 19.5% | 47.7% | -1.28% | – | – | 4.44% | – | 19.9%
COc1cc(-c2cncc(-c3ccc(N4CCN(C(C)C)CC4)cc3)c2C)cc(F)c1C(N)=O | -6.43% | 5.68% | 1.85% | – | 31.3% | 38.5% | 5.22% | – | – | – | – | – | – | – | 10.3% | – | – | 0.764% | –
Nc1nc(NCc2ccccc2)nc(-c2ccccc2CO)n1 | -3% | -7.11% | 5.12% | – | -2.01% | 52% | 2.12% | – | – | – | – | – | – | – | 4.21% | – | – | 61.2% | –
CC(C)c1c(CN(C)C(C)Cc2ccccc2)n(C)n(-c2ccccc2)c1=O (centres undefined) | 11% | 0.921% | -4.57% | – | 23.9% | 100% | 1.7% | – | – | – | – | – | – | – | 21.4% | – | – | 64.9% | –
CCOC(=O)c1cc2cc(-c3cc(C(=O)NCc4ccc(C(=O)O)cc4)nn3C)ccc2[nH]1 | – | – | – | – | – | – | – | -1.36% | -4.68% | 11.2% | – | 6.69% | 41.7% | -2.54% | – | – | 9.53% | – | 61%
O=C(c1cc2c(cc1F)OC(c1ccc(F)cc1)(c1ccc(Cl)cc1Cl)O2)N1CCOCC1 (centres undefined) | 25.5% | 3.95% | 8.5% | – | 5.83% | 17.8% | -5.46% | – | – | – | – | – | – | – | -5.3% | – | – | -9.38% | –
CC(=O)NCCc1c(Cc2ccccc2)[nH]c2ccccc12 | 0.533% | 4.1% | 3.51% | 2.66% | – | 16.3% | – | – | – | – | – | – | – | – | -9.93% | – | – | – | –
COc1cc2ncn(-c3cc(OCc4ccccc4C(F)(F)F)c(C(N)=O)s3)c2cc1OC | – | – | – | – | – | – | – | -6.25% | -7% | -8.65% | – | 10.2% | 35.1% | 3.27% | – | – | 0.727% | – | 6.17%
